Values quoted from earlier work as cited in paper PMC3985708 (Biochemistry, 2014).

Assays:
[1] = molecular target: modified hASL^Lys3UUU; settings: read-out: Kd, modified hASL^Lys3UUU; Kd value from previous studies
[2] = molecular target: unmodified hASL^Lys3; settings: read-out: Kd of NCp7 for unmodified ASL
[3] = system: modified hASL^Lys3

| Substance | Kd [1] | Kd [2] | Increase of NCp7 affinity for hASL^Lys3 by the modifications ([3]; modified versus unmodified ASL) | Kd ([3]; read-out: Kd of NCp7 for modified ASL, modified hASL^Lys3) |
| --- | --- | --- | --- | --- |
| RVTHHAFLGAHRTVG [P6] | 500 ± 100 nM | – | – | – |
| NCp7: HIV-1 nucleocapsid protein 7 (MQRGNFRNQRKIVKCFNCGKEGHTARNCRAPRKKGCWKCGKEGHQMKDCTERQAN; Nucleocapsid protein p7; UniProt P04591 378-432, looked up) | – | 2300 ± 620 nM | ~10 fold | 280 ± 30 nM |
